Assay results: US8394786B2, “Quinazoline derivatives” (Janssen Pharmaceutica N.V., priority 2003, dated 2013)

Columns and labels:
[1] = target: T1, EGFR (Homo sapiens, UniProt P00533); assay: ELISA assay of EGFR tyrosine kinase activity (C4); type: biochemical; conditions: poly(Glu, Tyr) coated plate, 5 μM ATP, room temperature 10 min
Experimental: The EGFR ELISA is generally described by Yang, E. B. et al., 2001, Biochimica et Biophysica Acta, 1550; 144.
For the determination of EGFR tyrosine kinase activity, 100 μl of 0.4 μg/ml poly(Glu, Tyr) in PBS was coated per well on a 96-well microplate at 37° C. overnight. […] After washing three times with PBS the plates were either used immediately or stored at 4° C. Prior to the determination of the EGFR tyrosine kinase activity, the coated plates were washed two times with PBS. Next, to each well 88 μl of an ATP dilution (50 mM Tris HCl pH 8.0, 10 mM MgCl2, 100 μM Na3VO4, 1 mM DTT, 5 μM ATP) and 2 μl with various concentrations of the compounds to be tested, were added. The EGFR tyrosine kinase-catalysed reaction was started by the addition of 10 μl of diluted EGFR (dilution→0.05 μg per well enzyme diluted in 50 mM TrisHCl pH 8.0+0.1% BSA). After incubation at room temperature for 10 min, the reaction was stopped by washing five times with PBS with 0.1% Tween 20. Subsequently […] of recombinant anti-phosphotyrosine horseradish peroxidase conjugate (1:2500) in BSA (10 mg/ml in PBS) was added. After incubation at room temperature for 1 h, the microplate was washed five times with PBS/Tween 20. After the microplate was incubated with 100 μl of TMB-ELISA (1-step Ultra TMB-ELISA, Pierce) until colour development, 100 μl of 0.5 M H2SO4 was added to stop the reaction, and it was read in a microplate reader at 450-655 nm.
Target sequence in this assay (P00533 25-1210): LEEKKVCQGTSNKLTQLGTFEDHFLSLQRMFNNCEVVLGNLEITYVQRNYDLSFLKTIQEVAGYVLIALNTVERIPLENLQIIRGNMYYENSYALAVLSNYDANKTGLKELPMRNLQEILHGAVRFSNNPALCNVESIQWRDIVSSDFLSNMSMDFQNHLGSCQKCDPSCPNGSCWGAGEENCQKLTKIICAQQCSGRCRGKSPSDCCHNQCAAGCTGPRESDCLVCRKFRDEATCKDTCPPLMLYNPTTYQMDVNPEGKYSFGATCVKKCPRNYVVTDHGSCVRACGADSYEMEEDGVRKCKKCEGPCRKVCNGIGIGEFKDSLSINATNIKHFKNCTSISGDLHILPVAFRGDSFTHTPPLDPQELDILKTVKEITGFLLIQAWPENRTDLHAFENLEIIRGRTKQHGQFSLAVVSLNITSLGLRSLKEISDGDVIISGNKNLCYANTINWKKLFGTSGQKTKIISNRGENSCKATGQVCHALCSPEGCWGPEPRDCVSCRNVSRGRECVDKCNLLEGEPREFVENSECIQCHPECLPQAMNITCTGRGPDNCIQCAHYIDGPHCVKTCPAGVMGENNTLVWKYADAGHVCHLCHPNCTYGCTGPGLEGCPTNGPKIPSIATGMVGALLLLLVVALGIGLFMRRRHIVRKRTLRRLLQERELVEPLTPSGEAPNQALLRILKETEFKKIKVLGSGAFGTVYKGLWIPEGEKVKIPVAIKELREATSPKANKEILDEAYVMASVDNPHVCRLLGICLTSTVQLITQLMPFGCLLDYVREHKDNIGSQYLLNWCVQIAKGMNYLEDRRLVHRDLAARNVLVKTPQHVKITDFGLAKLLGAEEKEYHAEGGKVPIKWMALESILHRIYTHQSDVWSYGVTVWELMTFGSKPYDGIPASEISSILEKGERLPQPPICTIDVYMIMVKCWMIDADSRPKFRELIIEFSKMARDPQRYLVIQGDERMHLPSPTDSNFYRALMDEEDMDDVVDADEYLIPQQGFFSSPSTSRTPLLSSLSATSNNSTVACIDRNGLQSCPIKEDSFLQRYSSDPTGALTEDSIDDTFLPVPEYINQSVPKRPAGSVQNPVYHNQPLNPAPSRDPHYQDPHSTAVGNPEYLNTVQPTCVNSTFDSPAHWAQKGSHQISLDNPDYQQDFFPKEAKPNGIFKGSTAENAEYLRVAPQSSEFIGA

[2] = system: SKOV3 cells; assay: Serum starved proliferation assay on the ovarian carcinoma SKOV3 cells (C3); type: cell-based; conditions: Homo sapiens, SK-OV-3, 72 h, EGF stimulated (100 ng/ml, 72 hours, serum free) or 72 hours with compounds; MTT cell viability assay; read-out: SKOV3 cell (C3): pIC50 (converted)
How it was run: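 MTT viability read-out in SKOV3 cells after a 24 h pre-incubation in 10% FCS, in one of two formats. EGF-stimulated version: serum-free compound exposure followed by 100 ng/ml EGF (final) for 72 h at 37 °C, 5% CO2. Otherwise, compound alone for 72 h.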

[3] = system: A431 cells; assay: Proliferation assay on the squamous carcinoma cell line A431 cells (C5); type: cell-based; conditions: Homo sapiens, A-431; 72 hours with compounds; MTT cell viability assay; read-out: A431 cell (C5): pIC50 (converted)
Experimental: The squamous carcinoma cell line (A431) was used in a cell proliferation assay, to assess the inhibitory effect of the compounds in whole cells.
In a first step the A431 cells were incubated for 24 hours in the presence of 10% FCS serum. In the second step the cells were incubated for 72 hours with the compounds to be tested at a final concentration of 100 ng/ml. The effect of the compounds on the cell proliferation was finally assessed in a standard MTT cell viability assay.

[4] = target: T1, EGFR; assay: In vitro inhibition of EGFR, Flash Plate or glass-fiber filter technology (C2); type: biochemical; design: 0.5 μg EGFR-kinase domain/well; conditions: EGFR-kinase domain, 5.0 μM unlabeled ATP, read-out: Kinase activity.(C2): pIC50 (converted)
How it was run: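 Two radiometric formats were used, each with 5.0 μM unlabeled ATP, [33P]ATP, 0.5 μg EGFR kinase domain and compounds from 1·10^−10 to 1·10^−6 M. Glass-fiber filter: 25° C for 10 min, pH 7.5, Mn2+/Mg2+, acid-stopped, phosphorimager read. Streptavidin Flash Plate: biotinylated poly(GT), pH 8.0, 30° C for 60 min.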
Target sequence in this assay (P00533 712-979 limits assumed): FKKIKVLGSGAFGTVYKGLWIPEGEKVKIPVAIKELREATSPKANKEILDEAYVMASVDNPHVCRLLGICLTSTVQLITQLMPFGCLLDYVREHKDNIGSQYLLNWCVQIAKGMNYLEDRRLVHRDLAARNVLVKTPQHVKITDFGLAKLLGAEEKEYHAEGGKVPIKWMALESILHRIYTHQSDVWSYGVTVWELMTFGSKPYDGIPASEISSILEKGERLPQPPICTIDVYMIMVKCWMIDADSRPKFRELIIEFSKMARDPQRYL

[5] = target: T1, EGFR; assay: In vitro inhibition of EGFR using a scintillant proximity assay (C1); type: biochemical; design: 0.5 μg EGFR-kinase domain/well; conditions: EGFR-kinase domain, poly(GT)biotin, 5.0 μM unlabeled ATP, 30° C. 60 minutes; read-out: EGFR SPA (C1): IC50
Experimental: In the present EGFR SPA kinase reaction assay, a kinase substrate consisting of biotinylated poly(L-glutamic acid-L-tyrosine) (poly(GT)biotin), is incubated with the aforementioned protein in the presence of (^33P) radiolabeled ATP. (^33P) phosphorylation of the substrate is subsequently measured as light energy emitted using streptavidin-coated SPA beads (Amersham Pharmacia Biotech) by trapping and quantifying the binding of the biotin tagged and radiolabeled substrate.
The EGFR SPA kinase reaction is performed at 30° C. for 60 minutes in a 96-well microtiter plate. For each of the tested compounds a full dose response 1·10^−6M to 1·10^−10M has been performed. IRESSA® and Tarceva™ (erlotinib) were used as reference compounds. The 100 μl reaction volume contains 54.5 mM TrisHCl pH 8.0, 10 mM MgCl2, 100 μM Na3VO4, 5.0 μM unlabeled ATP, 1 mM DTT, 0.009% BSA, 0.8 μCi ^33P-ATP, 0.35 μg/well poly(GT)biotin and 0.5 μg EGFR-kinase domain/well. The reaction is stopped by adding to each well 100 μl of the streptavidin beads (10 mg/ml in PBS+100 mM EDTA+100 μM ATP). The plates are than shaked at 300 rpm for 30 min to allow binding of the biotinylated substrate to the streptavidin coated beads. Than the beads are allowed to settle at the bottom of the plate for 30 minutes. The microtiterplates are centrifuges at 800 rpm for 10 minutes and the amount of phosphorylated (^33P) Poly(GT)biotin is determined by counting (30 sec/well) in a microtiterplate scintillation counter.
Target sequence in this assay (P00533 712-979 limits assumed): as above

IC50 [1] | IC50 [2] | melting point | IC50 [3] | IC50 [4] | IC50 [5] | SMILES
> 1000 nM | 1350 nM | 241.5 to 242.7 °C | > 1000 nM | 15.8 nM | 3.61 nM | COc1cc2ncnc3c2cc1OCCCCCCOc1ccc(Cl)cc1N3 [Compound 3, 4,6-ethanediylidene-19H-pyrimido[4,5-b][6,13,1]benzodioxaazacyclo-pentadecine, 17-chloro-8,9,10,11,12,13-hexahydro-20-methoxy-]
329 nM | > 10000 nM | 147.7 to 151.1 °C | – | 31.6 nM | 3.97 nM | COc1cc2ncnc3c2cc1OCCCCCCCCOc1ccc(Cl)cc1N3 [Compound 8, 4,6-ethanediylidene-21H-pyrimido[4,5-b][6,15,1]benzodioxaazacyclo-heptadecine, 19-chloro-8,9,10,11,12,13,14,15-octahydro-22-methoxy-]
556 nM | 2880 nM | 213.5 to 221.2 °C | – | 50.1 nM | 32.6 nM | COc1cc2ncnc3c2cc1OCCCCCOc1ccc(Cl)cc1N3 [Compound 4, 4,6-ethanediylidene-8H,18H-pyrimido[4,5-b][6,12,1]benzo-dioxaazacyclotetradecine, 16-chloro-9,10,11,12-tetrahydro-19-methoxy-]
> 1000 nM | – | 177.4 to 183.8 °C | – | 39.8 nM | 6.79 nM | COc1cc2ncnc3c2cc1OCCCCCCCCCOc1ccc(Cl)cc1N3 [Compound 9, 4,6-ethanediylidene-8H,22H-pyrimido[4,5-b][6,16,1]benzo-dioxaazacyclooctadecine, 20-chloro-9,10,11,12,13,14,15,16-octahydro-23-methoxy-]
> 1000 nM | 4790 nM | 243.3 to 251.2 °C | – | 398 nM | 81.1 nM | COc1cc2ncnc3c2cc1OCCCCCCOc1ccccc1N3 [Compound 5, 4,6-ethanediylidene-19H-pyrimido[4,5-b][6,13,1]benzodioxaazacyclo-pentadecine, 8,9,10,11,12,13-hexahydro-20-methoxy-]
> 1000 nM | > 2000 nM | – | > 1000 nM | > 10000 nM | > 100 nM | COc1cc2ncnc3c2cc1OC(=O)CCCCCOc1c(C)cccc1N3 [Compound 1, 4,6-ethanediylidene-19H-pyrimido[4,5-b][6,13,1]benzodioxaazacyclo-pentadecin-8(9H)-one, 10,11,12,13-tetrahydro-20-methoxy-15-methyl-]
> 1000 nM | > 10000 nM | 240.6 to 243.7 °C | – | 79.4 nM | 6.64 nM | COc1cc2ncnc3c2cc1OCCCCCCCOc1ccc(Cl)cc1N3 [Compound 7, 4,6-ethanediylidene-8H,20H-pyrimido[4,5-b][6,14,1]benzo-dioxaazacyclohexadecine, 18-chloro-9,10,11,12,13,14-hexahydro-21-methoxy-]
> 1000 nM | > 2000 nM | 255.5 to 260.2 °C | > 1000 nM | 100 nM | > 100 nM | COc1cc2ncnc3c2cc1OCCCCCCOc1c(Cl)cccc1N3 [Compound 2, 4,6-ethanediylidene-19H-pyrimido[4,5-b][6,13,1]benzodioxaazacyclo-pentadecine, 15-chloro-8,9,10,11,12,13-hexahydro-20-methoxy-]
359 nM | 1820 nM | 228.6 to 234.8 °C | – | 25.1 nM | 4.4 nM | COc1cc2ncnc3c2cc1OCCCCCCOc1ccc(Br)cc1N3 [Compound 6, 4,6-ethanediylidene-19H-pyrimido[4,5-b][6,13,1]benzodioxaazacyclo-pentadecine, 17-bromo-8,9,10,11,12,13-hexahydro-20-methoxy-]
